Assay: Measurement of copper on hair after shampoo/rinse-off conditioner wash cycles (ICP-OES)
Details: picolinic acid in the rinse-off conditioner; after 20 clarifying shampoo/rinse-off conditioner cycles
Experimental: All testing are performed on colored hair switches (see Method of Measurement of copper on hair below) weighing approximately 4.0 grams and having a length of approximately 6 inches. The hair switches are commercially available from IHIP (International Hair Importers). Three hair switches per shampoo composition are used. An amount of […] of shampoo is spread via a syringe onto separate hair switch. That is, the dosage is 0.10 g of shampoo per g of hair. Each application consists of adding shampoo to the hair, milking for 30 seconds followed by rinsing for 30 seconds. Shampoo is then reapplied (0.1 g/g), milked for 30 seconds and rinsed for 30 seconds. Excess water is squeezed from the hair switches and left to air dry or treated with a rinse-off conditioner and/or a leave-on treatment composition. This protocol is repeated for a number of times/cycles (as indicated in the tables below, which describe the details of hair treatments).
All testing are performed on colored hair switches (see Method of Measurement of copper on hair below) weighing approximately 4.0 grams and having a length of approximately 6 inches. […]
Samples of 100 mg of hair were digested overnight with 2 ml of high purity concentrated nitric acid. […] Copper content of the hair switches was determined by inductively coupled plasma atomic spectroscopy (ICP-OES)). For each leg, 3 different samples were analyzed. […]

SMILES: O=C(O)c1ccccn1 [picolinic acid]
- Removal of copper from hair compared to clarifying shampoo/control rinse-off conditioner: effective removal of copper from hair

Reference: patent US11786447B2, “Conditioner composition comprising a chelant” (The Procter & Gamble Company, priority 2016, dated 2023)
